Columns and labels:
Format in all cases: biochemical
[1] = molecular target: T1, Coprinus cinereus peroxidase (CiP) (Coprinopsis cinerea, UniProt P28314); test: Initial bleaching of Direct Blue 1 with Coprinus cinereus peroxidase and enhancers; conditions: 5 μM enhancer, 20 μM H2O2, 30° C.
T1 construct: made in house
T1 sequence (P28314 21-363): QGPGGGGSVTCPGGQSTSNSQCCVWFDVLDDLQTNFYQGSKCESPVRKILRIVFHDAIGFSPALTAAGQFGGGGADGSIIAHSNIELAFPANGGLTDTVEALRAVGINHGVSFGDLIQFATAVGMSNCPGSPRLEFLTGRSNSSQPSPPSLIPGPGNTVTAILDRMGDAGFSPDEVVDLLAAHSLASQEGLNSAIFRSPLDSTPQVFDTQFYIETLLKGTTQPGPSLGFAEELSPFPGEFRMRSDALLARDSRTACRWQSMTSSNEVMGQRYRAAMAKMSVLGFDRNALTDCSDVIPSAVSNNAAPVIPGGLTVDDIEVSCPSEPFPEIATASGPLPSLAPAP
Method: A Coprinus cinereus peroxidase (CiP), obtained as described in WO 9412621 was used.
Dilutions of CiP were made in a solution of 0.15 gram/l of Triton X-405.
The bleaching rate of Direct Blue 1 (DB1) by purified CiP was determined using the following conditions: […]
Reagents were mixed in a thermostated cuvette at 30° C. and the bleaching was started by addition of hydrogen peroxide. The bleaching was detected spectrophotometrically at 610 nm, which is the wavelength of the absorption peak of DB1. Bleaching was followed for 1 minute, and the initial reduction in absorbance, --ΔmAbs/minute, was determined.

[2] = molecular target: T2, Coprinus cinereus laccase (Coprinopsis cinerea, UniProt Q9Y780); test: Bleaching of Direct Blue 1 using Coprinus cinereus laccase with/without enhancing agents at pH 5.5-8.5; conditions: C. cinereus laccase 1 mg/l, 10 μM enhancing agent, 30° C.
T2 sequence (Q9Y780 19-539): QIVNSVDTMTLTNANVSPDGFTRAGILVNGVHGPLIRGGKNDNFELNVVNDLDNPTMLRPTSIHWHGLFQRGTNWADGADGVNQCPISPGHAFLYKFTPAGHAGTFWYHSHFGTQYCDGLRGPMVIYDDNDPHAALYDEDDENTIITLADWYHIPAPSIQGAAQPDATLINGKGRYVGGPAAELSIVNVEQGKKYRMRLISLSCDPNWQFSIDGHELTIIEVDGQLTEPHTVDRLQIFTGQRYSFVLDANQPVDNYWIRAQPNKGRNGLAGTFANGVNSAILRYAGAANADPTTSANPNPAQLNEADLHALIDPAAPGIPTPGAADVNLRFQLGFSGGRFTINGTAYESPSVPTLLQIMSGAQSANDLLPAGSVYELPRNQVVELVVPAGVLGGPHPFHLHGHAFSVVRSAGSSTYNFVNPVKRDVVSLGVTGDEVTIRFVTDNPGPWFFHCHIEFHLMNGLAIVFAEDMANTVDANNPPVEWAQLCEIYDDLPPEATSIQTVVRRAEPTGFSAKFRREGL
Method: Bleaching of the dye Direct Blue 1 at various pH values was conducted using Coprinus cinereus laccase and one of the following enhancing agents:
The laccase was obtained in the following way: Coprinus cinereus (IFO 30116--freely available to the public from Institute of Fermentation, Osaka (IFO) under the indicated deposit number) was inoculated from a PDA agar slant (PDA: 39 g/l potato dextrose agar) into a 100 ml shake flask containing medium A (Medium A is described in Example 3). The culture was cultivated for 6 days at 26° C. and 100 rpm. A 10-liter fermentor containing medium A was inoculated with the 100 ml culture broth. The fermentation ran for 6 days at 26° C. and 100 rpm. The culture broth was filtrated and concentrated by ultrafiltration. Further purification was carried out using hydrophobic interaction chromatography followed by anionic exchange chromatography. This process resultated in a preparation with a laccase activity of 3.6 LACU/ml. The estimated purity was >80% on a protein basis.
The bleaching rate of DB1 was determined using the owing conditions: […]
Reagents were mixed in a 1 ml thermostated cuvette at 30° C. and the bleaching was started by addition of the laccase.
The bleaching was followed spectrophotometrically at 610 nm, which is the wavelength of the absorption peak of DB1 with readings every 5 sec. for a period of 5 minutes. The initial bleaching rate was determined from the first linear part of the absorbance curve.

Trametes villosa laccase = molecular target: T3, Trametes villosa laccase (Trametes villosa, UniProt Q99044); test: Bleaching of Direct Blue 1 with Trametes villosa laccase with and without enhancing agents; conditions: 10 μM enhancer, 30° C.
T3 construct: made in house; host or cells: Trametes villosa CBS 678.70 (native producer), purified from culture broth
T3 sequence (Q99044 22-520): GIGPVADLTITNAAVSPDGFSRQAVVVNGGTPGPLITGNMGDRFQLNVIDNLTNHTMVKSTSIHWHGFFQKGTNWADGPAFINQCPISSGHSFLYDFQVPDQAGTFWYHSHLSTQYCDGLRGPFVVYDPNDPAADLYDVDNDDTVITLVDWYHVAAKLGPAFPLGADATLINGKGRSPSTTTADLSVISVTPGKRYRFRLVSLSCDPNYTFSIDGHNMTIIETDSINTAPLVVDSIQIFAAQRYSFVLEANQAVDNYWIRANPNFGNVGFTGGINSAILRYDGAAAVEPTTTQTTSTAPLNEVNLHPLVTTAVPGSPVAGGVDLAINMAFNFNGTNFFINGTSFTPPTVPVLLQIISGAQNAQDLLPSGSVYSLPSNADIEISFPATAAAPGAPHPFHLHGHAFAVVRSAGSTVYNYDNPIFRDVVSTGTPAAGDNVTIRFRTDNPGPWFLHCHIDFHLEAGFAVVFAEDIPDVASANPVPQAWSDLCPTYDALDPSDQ
Method: Laccase obtained from Trametes villosa: 800 ml culture broth of Trametes villosa, CBS 678.70, was filtered with filter aid to give a clear filtrate, which was concentrated and washed by ultrafiltration on a membrane with a cut-off of 6-8 kDa. One ml samples of concentrated preparation was applied onto a Q-Sepharose HP column (Pharmacia, Sweden) equilibrated with 0.1 M fosfate pH 7, and the laccase was eluted with a flat NaCl gradient around 0.25 M. Fractions with laccase activity from 10 runs were pooled and concentrated by ultrafiltration to an activity of 500 LACU/ml.
The following conditions were used: […]
Reagents were mixed in a 1 cm thermostated cuvette at 30° C. and the bleaching was started by addition of enzyme.
The bleaching was detected spectrophotometrically at 610 nm, which is the absorption peak of DB1. After 5 sec. bleaching was followed for 4 minutes.
Bleaching of Direct Blue 1 with Trametes villosa laccase, obtained as described above, at pH 5.5 (1.6 mg/l) and pH 7.0 (16 mg/l): […]

[3] = molecular target: T2, Coprinus cinereus laccase; test: Bleaching of gradually added Acid Blue 45 with Coprinus cinereus laccase with and without enhancing agent; conditions: phosphate/borate buffer pH 10; 35° C.; laccase 10 mg/l; acetosyringone 10 μM
Method: To simulate such a process, however, a magnetically stirred beaker was used as the reaction vessel and dye was added gradually from a stock solution (using a Metrohm 725 dosimat). The solution was monitored spectrophotometrically using a Zeiss multichannel spectrometer (MCS) equipped with a fibre-optics immersion probe.
Stock solutions of acetosyringone was prepared in a suitable water/ethanol mixture. Stock solutions of the anthraquinone dye Acid Blue 45 were made with water.
The laccase was recovered from a 10-liter fermentation of Coprinus cinereus (IFO 30116) as described in Example 4.
The following conditions were used in the experiment:
Medium and pH: […]/50 mM phosphate/borate buffer at pH 10
Acetosyringone (when applicable): 10 μM
Dye addition program: linear addition at a rate of ca 0.34 bs/40 min, referring to the absorbance of Acid Blue 45 at its maximum absorbance wavelength (590 nm for Acid Blue 45).
The following symbols are used: (I): Only dye addition; (II): Dye addition in the presence of Laccase; (III): Dye addition in the presence of Laccase+acetosyringone.

COc1cc(C(C)=O)cc(OC)c1O [acetosyringone]
Initial Bleaching of Direct Blue 1 with CiP ([1]; pH 8.5, 0.08 mg/l CiP): 239 -ΔmAbs/minute | Initial Bleaching of Direct Blue 1 with CiP ([1]; pH 10.5, 0.16 mg/l CiP): 1 -ΔmAbs/minute | Initial bleaching rate of DB1 ([2]; pH 5.5): 28 -ΔmAbs/minute | Initial bleaching rate of DB1 ([2]; pH 7.0): 94 -ΔmAbs/minute | Initial bleaching rate of DB1 ([2]; pH 8.5): 50 -ΔmAbs/minute | DB1 bleaching in 4 minutes (Trametes villosa laccase; pH 5.5, Trametes villosa laccase 1.6 mg/l): 447 -ΔmAbs/4 min | DB1 bleaching in 4 minutes (Trametes villosa laccase; pH 7.0, Trametes villosa laccase 16 mg/l): 242 -ΔmAbs/4 min | Bleaching effect on gradually added Acid Blue 45 (FIG. 1) [3]: enhanced
